From patent US20100137368A1, “PYRIDINE DERIVATIVES AS FAST DI[…] 2 RECEPTOR ANTAGONISTS” (JANSSEN PHARMACEUTICA N.V., priority 2007, published 2010)
Counter-ions that a name gives are not always drawn.

melting point | Compound
115.2 °C | N#Cc1cccc(NC2CCN(Cc3cc(F)cc(C(F)(F)F)c3)CC2)n1
102.6 °C | N#Cc1ccc(NC2CCN(Cc3cc(F)cc(F)c3)CC2)nc1
198.8 °C | N#Cc1ccc(NC2CCN(Cc3cc(F)cc(C(F)(F)F)c3)CC2)nc1

Further lines, the compound ahead of its results:

Compound | melting point
Fc1ccc(CN2CCC(Nc3ccc(C(F)(F)F)cn3)CC2)cc1F (as salt: hydrochloric acid salt) | 268.7 °C
N#Cc1ccc(NC2CCN(Cc3cccc(C(F)(F)F)c3)CC2)nc1 | 111.6 °C
N#Cc1ccc(NC2CCN(Cc3cc(F)c(F)c(F)c3)CC2)nc1 | 129.5 °C
